The values below are quoted from earlier work in paper PMC4366844, “Biochemical and Pharmacological Characterizations of ESI-09 Based EPAC Inhibitors: Defining the ESI-09 “Therapeutic Window”” (Scientific Reports, 2015).

For this series, the system named is EPAC2. As to conditions: cited from earlier work.

`Cc1ccc(S(=O)(=O)c2c(C)cc(C)cc2C)cc1` [ESI-05]: the EPAC isoform selectivity result is given as “exclusively selective for EPAC2”.
